Test [1] concerns congestive heart failure dogs, coronary perfused left ventricular preparation. Briefly: Ventricular fibrillation optical mapping, activation patterns, pacing-induced heart failure dogs. In kind it is in vivo. From the text:
Animal Models: Twenty-four dogs weighing 25-30 Kg were divided into three groups: control (n=11), congestive heart failure (n=7), and congestive heart failure with the antifibrotic drug pirfenidone (n=6). Heart Failure (CHF) was induced in 7 dogs via four weeks of rapid ventricular pacing via a lead placed in the RV and pulse generator set to pace at 240 bpm followed by ablation of the AV node to create complete heart block, as described in Li, et al., Circulation 1999; 100:87-95. Ventricular function was monitored weekly with transthoracic echocardiography for 4 weeks. At 4 weeks, the optical mapping study was performed.
Heart Failure with Pirfenidone (PFD): Heart failure was induced in 6 dogs as described above and PFD was administered as described in Lee et al., Circulation 2006; 114; 1703-12. Oral PFD (800 mg 3 times per day; InterMune, Brisbane, Calif.) was started 2 days before the initiation of pacing and was discontinued >6 half-lives (24 hours) before the optical mapping study.
Optical Mapping Studies: A coronary perfused left ventricular preparation was used as described in Wu et al., J Cardiovasc Electrophysiol 1998; 9:1336-47. Briefly, following sedation with sodium pentothal (0.25 mg/Kg), a left lateral thoracotomy is performed and the heart was rapidly excised. It was then perfused with cardioplegic solution ((in mmol/L): NaCl 123, KCl 15, NaHCO3 22, NaH2PO4 0.65, MgCl2 0.50, glucose 5.5, CaCl2 2, bubbled with 95% O2/5% CO2) retrogradely through the aorta. The ventricles were removed at approximately 1 cm below the AV ring and the left anterior descending coronary artery (LAD) was perfused. The right ventricle was removed and the left ventricle was cut to the size that was perfused by the LAD and included a papillary muscle. All ventricular branches were then ligated.
The ventricular preparation was then transferred to a tissue chamber maintained at 37° C. The perfusion line in the LAD was perfused with modified Tyrode's solution ((in mmol/L): NaCl 123, KCl 5.4, NaHCO3 22, NaH2PO4 0.65, MgCl2 0.50, glucose 5.5, CaCl2 2, bubbled with 95% O2/5% CO2). Prior to optical recordings, a bolus of 30-40 μl of the voltage sensitive dye PGH-1 was injected directly into the perfusate.
With an optical mapping system described in Wu et al., J Cardiovasc Electrophysiol 1998; 9:1336-47, optical recordings were then made from 4-cm^2 area on 3 surfaces of the preparation (epicardial, endocardial (including the papillary muscle, and transmural) by a 16×16 photodiode array (C4657 Hamamatsu, Bridgewater, N.J.) that recorded 256 simultaneous optical action potentials. During optical recordings from a preparation, contractility was blocked with 15 mM 2,3-butadione monoxime (BDM; Sigma-Aldrich)11. Plunge electrodes were placed on the recording surface around the field of view for both pacing and monitoring. Two plunge electrodes were dedicated for recording a bipolar signal for monitoring the electrical activity of the preparation. VF was initiated with either extra stimuli or with rapid burst pacing at a cycle length of 50 ms, a pulse width of 9.9 ms, and an output of 9.9 mA. Several 4-s episodes of VF were recorded on each surface in each preparation. Activation movies of the VF were then viewed, and the activation patterns were determined. […] Activation patterns and wave-front direction during VF were determined from raw fluorescence movies (isopotential). […]

In test [2] the test system is ischemia-reperfusion rat model. Briefly: Serial echocardiography in ischemia-reperfusion MI rats. In kind it is in vivo, Sprague-Dawley rats. The note with it: for LV ejection fraction at 5 weeks: 5 weeks post-MI, after four weeks feed with 1.2% pirfenidone. The method, then: In this example, a protocol is described for examining the ventricular function, extent of fibrosis and VT inducibility in an ischemia-reperfusion rat model after pirfenidone treatment. Ventricular function was assessed via echocardiography. VT inducibility was assessed by programmed stimulation and EP study. The electrophysiological properties were assessed using high-resolution optical mapping, and the extent of fibrosis was studied using standard histological techniques.
After baseline echocardiography, thirty male Sprague-Dawley rats, ages 6-10 weeks, underwent myocardial infarction using an ischemia-reperfusion model. Briefly, rats were anesthetized using inhaled isoflurane (5% induction, 2.5% maintenance, O2 output 1 L/min) and positioned supine on an electrically warmed animal surgery platform. Rats were intubated using a 16-gauge i.v. catheter and then ventilated using a Harvard rodent respirator. After a left thoracotomy and pericardiotomy were performed, a 7-0 Ticron suture was introduced into the myocardium, using the left atrial appendage and right outflow tract as landmarks. The depth of entry was 2 mm, which was slightly greater than the level of the left coronary artery. Both suture ends were then threaded through a PE-90 polyethylene tube 6 in. in length to form a “snare loop” around the artery, closed by pulling on the free ends of the suture. […] The suture was then tightened to occlude the artery for 20 minutes and then removed to allow for reperfusion. The chest was then closed with 5-0 prolene suture, and the animal was allowed to recover. After one week and repeat echocardiography, rats were randomized to placebo rodent feed (control group, n=15) or rodent feed mixed with 1.2% pirfenidone (PFD) (treatment group, n=15) for four weeks. All experiments and data analyses were performed with the operator blinded to treatment group.
At baseline, and at 1 wk and 5 wk after infarction, a commercially available high-resolution echocardiographic system (Vevo 660, VisualSonics, Toronto, ON, Canada) equipped with a 25-MHz mechanical transducer was used for echocardiography. Rats were placed supine on a warming platform, and ECG limb electrodes were attached. To minimize ultrasound attenuation, the chests were shaved and cleaned with a chemical hair remover (Nair). Aquasonic 100 gel (Parker Laboratories, Fairfield, N.J.) was applied to the thoracic surface to optimize visibility of the cardiac chambers. Parasternal long-axis and parasternal short-axis two-dimensional views were acquired.
Using the long-axis view, left ventricular (LV) end-systolic and end-diastolic volumes (ESV and EDV), as well as LV ejection fraction (LVEF), were calculated by using frames with the maximal and minimal cross-sectional area and width. The system software utilizes a formula based on a cylindrical-hemiellipsoid model (volume=8*area2÷3÷length). LVEF was calculated using the following formula: (EDV−ESV)/EDV*100. Fractional shortening (FS) was evaluated from the M mode of the parasternal long-axis view at the papillary muscle level on the basis of the percent changes of LV end-diastolic and end-systolic diameters. LV mass was estimated using the following equation at end diastole: LV mass=1.05*(epicardial volume−endocardial volume), where volume is based on the cylindrical-hemiellipsoid model. These evaluations of LV function in the rodent are well validated. Echocardiographic acquisition and analysis were obtained while blinded to the treatment group.

[3] abbreviates: CHF dogs, oral PFD 800 mg 3 times per day, one line per dog, listed as PFD.

Where “and” joins values, the source holds several entries; their conditions need not be identical. Identical values can stand only once. Entries after “also recorded” stand apart in the source; their conditions may differ.

For the molecule `Cc1ccc(=O)n(-c2ccccc2)c1` [pirfenidone], in test [1] (CHF dogs with PFD), the “mapped epicardial surfaces having either focal activation or a spiral wave” value is on record as 2/6 and the “mapped transmural surfaces with spiral wave activation pattern correlated to stable high DF areas” value was 50%. In test [1] (setting [3]), the “VF Activation Patterns, Endocardial” value is recorded as “either multiple or broad wavefront activation; also recorded: multiple wave; also recorded: broad wavefront”; the “VF Activation Patterns, Epicardial” value was “multiple wave; also recorded: focal”; the “VF Activation Patterns, Transmural” value is “spiral wave; also recorded: multiple wave”. For the same molecule, the “LV ejection fraction at 1 week” value in test [2] (1 week post-MI, at randomization before treatment) was 54%. In test [2], the “LV ejection fraction at 5 weeks” value turned out to be 45%. In addition, the “LV ejection fraction at 5 weeks” value in test [2] (listed as PFD) is recorded as 36±15%. Also, the “LV ejection fraction, starting value of the decline” value in test [2] (baseline echocardiography, before treatment) came out at 66±5%. Also, the “percent decrease in ejection fraction from week 1 to week 5” value in test [2] (treatment period, feed with 1.2% pirfenidone, controls 24.3%, p=0.005) was 8.6% and 8%.

Source of the values: patent US20110218515A1, “Methods for Treating Acute Myocardial Infarctions and Associated Disorders” (The Regents of the University of California, priority 2009, published 2011).
